System: TNF-α
Experiment: Cell-based TNF-α inhibition assay in LPS-induced PBMCs (Meso Scale)
Conditions: PBMC, PBMCs pretreated 1 h, LPS 100 ng/mL 18-24 h, relative to stimulated DMSO control; for inhibition at 1 µM: compound concentration 1 μM; for inhibition at 0.1 µM: compound concentration 0.1 μM
Description: Frozen primary blood mononuclear cells (PBMCs) were quick thawed, washed once with RPMI 1640 media supplemented with 10% fetal bovine serum, 1% penicillin, and 1% streptomycin, and plated in a 96 well plate at 200,000 cells per well. The cells were pretreated with DMSO only as a control or a compound for 1 h, and then induced with LPS (lipopolysaccharide) (100 ng/mL) for 18-24 h. The supernatant was analyzed for TNF-α using the Meso Scale assay. Compound activity was determined as a percentage of the stimulated DMSO control. The results are summarized in Table 1, where A represents a percent inhibition value ≥60%; B represents a percent inhibition value <60% and ≥40%; C represents a percent inhibition value <40% and >20%; and D represents a single percent inhibition value <20%.

`COc1ccc(C2CNC(=O)C2)cc1OCCCCCCCN1CCC(c2cc(F)cc3c2CN(C2CCC(=O)NC2=O)C3=O)CC1` (stereo not shown) [Compound B53, 3-(6-Fluoro-4-(1-(7-(2-methoxy-5-(5-oxopyrrolidin-3-yl)phenoxy)heptyl)piperidin-4-yl)-1-oxoisoindolin-2-yl)piperidine-2,6-dione] was tested, and the inhibition at 1 µM was < 20%.
Work on `COc1ccc(N2C(=O)c3ccc(NCCCCCCCN4CCC(c5cc(F)cc6c5CN(C5CCC(=O)NC5=O)C6=O)CC4)cc3C2=O)cc1OC1CCCC1` (stereo not shown) [Compound B54, 2-(3-(Cyclopentyloxy)-4-methoxyphenyl)-5-((7-(4-(2-(2,6-dioxopiperidin-3-yl)-6-fluoro-1-oxoisoindolin-4-yl)piperidin-1-yl)heptyl)amino)isoindoline-1,3-dione] yielded an inhibition at 1 µM of 20 to 40%.
With `COc1ccc(C2CNC(=O)C2)cc1OCCCCCCCN1CCC(c2cc3c(cc2F)C(=O)N(C2CCC(=O)NC2=O)C3)CC1` (stereo not shown) [Compound B55, 3-(6-Fluoro-5-(1-(7-(2-methoxy-5-(5-oxopyrrolidin-3-yl)phenoxy)heptyl)piperidin-4-yl)-1-oxoisoindolin-2-yl)piperidine-2,6-dione] the inhibition at 1 µM was 20 to 40%.
Work on `COc1ccc(N2Cc3ccc(NCCCCCCCN4CCC(c5cc(F)cc6c5CN(C5CCC(=O)NC5=O)C6=O)CC4)cc3C2=O)cc1OC1CCCC1` (stereo not shown) [Compound B56, 3-(4-(1-(7-((2-(3-(Cyclopentyloxy)-4-methoxyphenyl)-3-oxoisoindolin-5-yl)amino)heptyl)piperidin-4-yl)-6-fluoro-1-oxoisoindolin-2-yl)piperidine-2,6-dione] yielded an inhibition at 1 µM of 40 to 60%.
`O=C1CC(c2ccc(OCCCCCCCN3CCC(c4cc(F)cc5c4CN(C4CCC(=O)NC4=O)C5=O)CC3)c(OC3CCCC3)c2)CN1` (stereo not shown) [Compound B57, 3-(4-(1-(7-(2-(Cyclopentyloxy)-4-(5-oxopyrrolidin-3-yl)phenoxy)heptyl)piperidin-4-yl)-6-fluoro-1-oxoisoindolin-2-yl)piperidine-2,6-dione] was tested, and the inhibition at 1 µM was < 20%.
In the case of `Nc1ccc2c(c1)C(=O)N(c1ccc(OCCCCCCCN3CCC(c4cc(F)cc5c4CN(C4CCC(=O)NC4=O)C5=O)CC3)c(OC3CCCC3)c1)C2=O` (stereo not shown) [Compound B58, 5-Amino-2-(3-(cyclopentyloxy)-4-((7-(4-(2-(2,6-dioxopiperidin-3-yl)-6-fluoro-1-oxoisoindolin-4-yl)piperidin-1-yl)heptyl)oxy)phenyl)isoindoline-1,3-dione], the inhibition at 1 µM is reported as < 20%.
With `O=C1CCC(N2Cc3c(cc(F)cc3C3CCN(CCCCCCCOc4ccc(N5C(=O)c6ccccc6C5=O)cc4OC4CCCC4)CC3)C2=O)C(=O)N1` (stereo not shown) [Compound B59, 2-(3-(Cyclopentyloxy)-4-((7-(4-(2-(2,6-dioxopiperidin-3-yl)-6-fluoro-1-oxoisoindolin-4-yl)piperidin-1-yl)heptyl)oxy)phenyl)isoindoline-1,3-dione] the inhibition at 1 µM was < 20%.
Work on `COc1ccc(N2Cc3ccc(N)cc3C2=O)cc1OCCCCCCCN1CCC(c2cc(F)cc3c2CN(C2CCC(=O)NC2=O)C3=O)CC1` (stereo not shown) [Compound B60, 3-(4-(1-(7-(5-(6-Amino-1-oxoisoindolin-2-yl)-2-methoxyphenoxy)heptyl)piperidin-4-yl)-6-fluoro-1-oxoisoindolin-2-yl)piperidine-2,6-dione] yielded an inhibition at 1 µM of 20 to 40%.
In the case of `O=C1CCC(N2Cc3cc(C4CCN(CCCCCCCOc5cc(C(=O)Nc6c(Cl)cncc6Cl)ccc5OC(F)F)CC4)c(F)cc3C2=O)C(=O)N1` (stereo not shown) [Compound B61, N-(3,5-Dichloropyridin-4-yl)-4-(difluoromethoxy)-3-((7-(4-(2-(2,6-dioxopiperidin-3-yl)-6-fluoro-1-oxoisoindolin-5-yl)piperidin-1-yl)heptyl)oxy)benzamide], the inhibition at 0.1 µM is reported as ≥ 60% and the inhibition at 1 µM is reported as ≥ 60%.
`CCOc1cc([C@@H](CS(C)(=O)=O)N2C(=O)c3cccc(NC(=O)CCCCCCCCC(=O)N[C@H](C(=O)N4C[C@H](O)C[C@H]4C(=O)NCc4ccc(-c5scnc5C)cc4)C(C)(C)C)c3C2=O)ccc1OC` [Compound B63, N^1-(2-((S)-1-(3-Ethoxy-4-methoxyphenyl)-2-(methylsulfonyl)ethyl)-1,3-dioxoisoindolin-4-yl)-N^10—((S)-1-((2S,4R)-4-hydroxy-2-((4-(4-methylthiazol-5-yl)benzyl)carbamoyl)pyrrolidin-1-yl)-3,3-dimethyl-1-oxobutan-2-yl)decanediamide] was tested, and the inhibition at 0.1 µM was ≥ 60% and the inhibition at 1 µM was ≥ 60%.
In the case of `CCOc1cc([C@@H](CS(C)(=O)=O)N2C(=O)c3cccc(NC(=O)CCOCc4ccc(COCCNc5cccc6c5C(=O)N(C5CCC(=O)NC5=O)C6=O)cc4)c3C2=O)ccc1OC` (stereo partly drawn) [Compound B64, 3-((4-((2-((2-(2,6-Dioxopiperidin-3-yl)-1,3-dioxoisoindolin-4-yl)amino)ethoxy)-methyl)benzyl)oxy)-N-(2-((S)-1-(3-ethoxy-4-methoxyphenyl)-2-(methylsulfonyl)ethyl)-1,3-dioxoisoindolin-4-yl)propanamide], the inhibition at 0.1 µM is reported as ≥ 60% and the inhibition at 1 µM is reported as ≥ 60%.
With `COc1ccc(N2C(=O)c3ccsc3C2=O)cc1OCCCCCCCN1CCC(c2cc(F)cc3c2CN(C2CCC(=O)NC2=O)C3=O)CC1` (stereo not shown) [Compound B65, 5-(3-((7-(4-(2-(2,6-Dioxopiperidin-3-yl)-6-fluoro-1-oxoisoindolin-4-yl)piperidin-1-yl)heptyl)oxy)-4-methoxyphenyl)-4H-thieno[2,3-c]pyrrole-4,6(5H)-dione] the inhibition at 1 µM was < 20%.
For `COc1ccc(C2CNC(=O)C2)cc1OCCCCCCCNc1cccc2c1C(=O)N(C1CCC(=O)NC1=O)C2=O` (stereo not shown) [Compound B66, 2-(2,6-Dioxopiperidin-3-yl)-4-((7-(2-methoxy-5-(5-oxopyrrolidin-3-yl)phenoxy)-heptyl)amino)isoindoline-1,3-dione], the inhibition at 1 µM was ≥ 60%.
`COc1ccc(C2CNC(=O)C2)cc1OCCCCCCCCC(=O)N[C@H](C(=O)N1C[C@H](O)C[C@H]1C(=O)NCc1ccc(-c2scnc2C)cc1)C(C)(C)C` (stereo partly drawn) [Compound B67, (2S,4R)-4-Hydroxy-1-((2S)-2-(9-(2-methoxy-5-(5-oxopyrrolidin-3-yl)phenoxy)-nonanamido)-3,3-dimethylbutanoyl)-N-(4-(4-methylthiazol-5-yl)benzyl)pyrrolidine-2-carboxamide] was tested, and the inhibition at 1 µM was ≥ 60%.
For `Cc1ncsc1-c1ccc(CNC(=O)[C@@H]2C[C@@H](O)CN2C(=O)[C@@H](NC(=O)CCCCCCCCOc2cc(C(=O)Nc3c(Cl)cncc3Cl)ccc2OC(F)F)C(C)(C)C)cc1` [Compound B68, (2S,4R)-1-((S)-2-(9-(5-((3,5-Dichloropyridin-4-yl)carbamoyl)-2-(difluoromethoxy)phenoxy)nonanamido)-3,3-dimethylbutanoyl)-4-hydroxy-N-(4-(4-methylthiazol-5-yl)benzyl)pyrrolidine-2-carboxamide], the inhibition at 0.1 µM was ≥ 60% and the inhibition at 1 µM was ≥ 60%.
`CCOc1cc([C@@H](CS(C)(=O)=O)N2C(=O)c3cc(CCCN4CCC(c5cc(F)cc6c5CN(C5CCC(=O)NC5=O)C6=O)CC4)cc(NC(C)=O)c3C2=O)ccc1OC` (stereo partly drawn) [Compound B69, N-(6-(3-(4-(2-(2,6-Dioxopiperidin-3-yl)-6-fluoro-1-oxoisoindolin-4-yl)piperidin-1-yl)propyl)-2-((S)-1-(3-ethoxy-4-methoxyphenyl)-2-(methylsulfonyl)ethyl)-1,3-dioxoisoindolin-4-yl)acetamide] was tested, and the inhibition at 0.1 µM was 40 to 60% and the inhibition at 1 µM was ≥ 60%.
With `CCOc1cc([C@@H](CS(C)(=O)=O)N2C(=O)c3cccc(NC(=O)CCCCCCCCNCc4ccc(OCc5scc6c5CN(C5CCC(=O)NC5=O)C6=O)cc4)c3C2=O)ccc1OC` (stereo partly drawn) [Compound B70, 9-((4-((5-(2,6-Dioxopiperidin-3-yl)-4-oxo-5,6-dihydro-4H-thieno[3,4-c]pyrrol-1-yl)methoxy)benzyl)amino)-N-(2-((S)-1-(3-ethoxy-4-methoxyphenyl)-2-(methylsulfonyl)ethyl)-1,3-dioxoisoindolin-4-yl)nonanamide] the inhibition at 0.1 µM was ≥ 60% and the inhibition at 1 µM was ≥ 60%.
`CCOc1cc([C@@H](CS(C)(=O)=O)N2C(=O)c3cccc(NC(=O)CCCCCCCCCCCNc4cccc5c4C(=O)N(C4CCC(=O)NC4=O)C5=O)c3C2=O)ccc1OC` (stereo partly drawn) [Compound B71, 12-((2-(2,6-Dioxopiperidin-3-yl)-1,3-dioxoisoindolin-4-yl)amino)-N-(2-((S)-1-(3-ethoxy-4-methoxyphenyl)-2-(methylsulfonyl)ethyl)-1,3-dioxoisoindolin-4-yl)dodecanamide] was tested, and the inhibition at 0.1 µM was ≥ 60% and the inhibition at 1 µM was ≥ 60%.
In the case of `O=C1CCC(N2C(=O)c3cccc(NCCCCCCCOc4cc(C(=O)Nc5c(Cl)cncc5Cl)ccc4OC(F)F)c3C2=O)C(=O)N1` (stereo not shown) [Compound B72, N-(3,5-Dichloropyridin-4-yl)-4-(difluoromethoxy)-3-((7-((2-(2,6-dioxopiperidin-3-yl)-1,3-dioxoisoindolin-4-yl)amino)heptyl)oxy)benzamide], the inhibition at 0.1 µM is reported as ≥ 60% and the inhibition at 1 µM is reported as ≥ 60%.
With `O=C1CCC(N2Cc3c(cc(F)cc3C3CCN(CCCCCCCCCCCCOc4cc(C(=O)Nc5c(Cl)cncc5Cl)ccc4OC(F)F)CC3)C2=O)C(=O)N1` (stereo not shown) [Compound B73, N-(3,5-Dichloropyridin-4-yl)-4-(difluoromethoxy)-3-((12-(4-(2-(2,6-dioxopiperidin-3-yl)-6-fluoro-1-oxoisoindolin-4-yl)piperidin-1-yl)dodecyl)oxy)benzamide] the inhibition at 0.1 µM was ≥ 60% and the inhibition at 1 µM was ≥ 60%.
`O=C1CCC(N2C(=O)c3cccc(NCCOCCOCCOCCOc4ccc(C(=O)Nc5c(Cl)cncc5Cl)cc4OC(F)F)c3C2=O)C(=O)N1` (stereo not shown) [Compound B74, N-(3,5-Dichloropyridin-4-yl)-3-(difluoromethoxy)-4-(2-(2-(2-(2-((2-(2,6-dioxopiperidin-3-yl)-1,3-dioxoisoindolin-4-yl)amino)ethoxy)ethoxy)ethoxy)ethoxy)benzamide] was tested, and the inhibition at 0.1 µM was ≥ 60% and the inhibition at 1 µM was ≥ 60%.

— patent US12522612B2, “PDE4 inhibitors, pharmaceutical compositions, and therapeutic applications” (BioTheryX, Inc., priority 2019, dated 2026)
